# Reference: patent US10117903B1, “Method for regulating cancer stem cell growth by inhibiting phosphorylation of 120th threonine residue of TSPYL5 protein, a composition containing the peptide sequence functioning to inhibit the phosphorylation and a use thereof” (Korea Atomic Energy Research Institute, priority 2016, dated 2018)
# Where a SMILES comes first, the peptide text is derived from it. The star is where a group is joined. Cbz = O=C(OCc1ccccc1)*
# Tests used:
# Assay type in all cases: cell-based
# [1] = test system: A549 cells; test: Cancer cell proliferation (colony-forming ability) after peptide treatment; settings: 10 μM of each peptide, 8 days, crystal violet staining, compared with DMSO control
# Protocol: Particularly, 1×10^3 A549 cells were distributed on a 35 mm plate, which were treated with 10 μM of each peptide. As for the control, DMSO was treated thereto, followed by culture in a 37° C. 5% CO2 incubator for 8 days. The cells were stained with 0.5% crystal violet for 10 minutes. The cells were washed with PBS several times and then cell proliferation was investigated.
# [2] = test system: A549 cells; test: Sphere formation after peptide treatment; settings: 10 μM of each peptide, 10 days, compared with the control
# Protocol: To investigate the capacity of TSPYL5 peptide to inhibit the sphere formation, 2×10^4 A549 cells (non-small cell lung cancer cells) were suspended in DMEM (Invitrogen) containing stem cell-permissive medium. 20 ng/ml of EGF, 20 ng/ml of basic fibroblast growth factor (bFGF) and B27 serum-free supplement (Invitrogen) were mixed with DMEM-F12 (Invitrogen). The cells were distributed in the 96 well plate pre-coated with 0.8% agar (one cell/well), to which 10 μM of each peptide was treated, followed by culture. The cells were cultured in a 37° C. 5% CO2 incubator for 10 days. Then, the sphere formation was observed.
# [3] = test system: A549 cells; test: Transwell migration assay (cancer cell metastasis) after peptide treatment; settings: 10 μM peptide, 40 hours, compared with the control
# Protocol: (§1) The mixture was loaded in the transwell upper chamber. In the lower chamber, 500 μl of RPMI1640 supplemented with 7% FBS was loaded. Then, the two chambers were combined together. The cells were cultured in a 37° C. 5% CO2 incubator for 40 hours. The upper chamber membrane was wiped with cotton swabs, stained with crystal violet, and then observed under microscope.
# (§2) For invasion assay, the transwell upper chamber was coated with 100 μl of matrigel (20 μg/well; BD Biosciences). Then, the rest of the process was the same as described in the migration assay above. The cells stained with crystal violet were eluted with 500 μl of 10% acetic acid. OD600 was measured to calculate the relative migration/invasion value of A549 cells.
# [4] = test system: A549 cells; test: Matrigel transwell invasion assay after peptide treatment; settings: 10 μM peptide, matrigel-coated transwell, compared with the control
# Protocol: as §1, §2
# [5] = test system: TSPYL5 protein; test: TSPYL5 nuclear expression after SUMOylation inhibition; settings: A549 cells, 3 uM, 2 hours
# Protocol: However, in the cells expressing pcDNA3.1/TSPYL5-120A, the SUMOylation was not observed. To confirm the SUMOylation inhibition, the SUMO1 inhibitor ginkgolic acid (Abcam) was treated to A549 cells at the concentration of 3 uM for 2 hours.
# [6] = test system: TSPYL5; test: Ubiquitination assay of TSPYL5
# Protocol: H460 cells were transfected with pcDNA3.1/TSPYL5 (wild-type) and pcDNA3.1/TSPYL5-120A constructed in Example 1. 48 hours later, 10 μM MK2206 was treated to the cells for 1 hour and then the cells were recovered. A protease inhibitor was added to a cell lysis solution (2% SDS, 150 mM NaCl, 10 mM Tris-HCl, pH 8.0), followed by mixing. 100 μl of the solution was added to the cells. The cells were lysed by using a sonicator. Centrifugation was performed at 13000 rpm. The supernatant was obtained, which was diluted in a diluting solution (0.01% SDS, 1.1% Triton X-100, 1.2 mM EDTA, 16.7 mM Tris-HCl (pH8.1), 167 mM NaCl) at 1/10, followed by reaction at 4° C. for 30 minutes. TSPYL5 or ubiquitin specific antibody was added thereto, followed by reaction for overnight to induce protein binding. Protein A/G agarose beads were added thereto, followed by reaction for 4 hours. The protein was washed with washing buffer (10 mM Tris-HCl pH 8.0, 1 M NaCl, 1 mM EDTA, 1% NP40) twice. The protein was mixed with loading buffer and heated at 95° C. Samples were loaded, followed by reaction with TSPYL5 or ubiquitin specific antibody to confirm the protein expression.
# [7] = test system: A549 cells; test: Western blotting after AKT/PI3K inhibitor treatment; settings: 10 μM MK2206 or 50 μM LY294002, Western blotting
# Protocol: (§3) Western blotting was performed as follows in order to investigate the protein expression. Lysis buffer (0.05 M Tris-Cl (pH7.4), 0.15 M NaCl, 0.25% deoxycholic acid, 1% NP-40, 1 mM EDTA, and protease inhibitor cocktail) was added to the target cells, followed by reaction at 4° C. for 30 minutes. The cell lysate was centrifuged at 4° C. to obtain the supernatant. The supernatant was quantified. 40 μg of each protein was loaded on SDS-gel, followed by electrophoresis. The proteins were transferred onto nitrocellulose membrane, followed by blocking with BSA containing buffer at room temperature for 30 minutes. Then, the membrane was reacted with the primary antibody PTEN (1:1000), TSPYL5 (Santa Cruz), ALDH1A1, ALDH1A3 (Abcam), CD44, and β-actin, or GAPDH (CST) for 4 hours. Then, the membrane was reacted with the secondary antibody (1:10000). The nitrocellulose membrane was washed 5 times with PBS, followed by sensitization on the film with the detection solution.
# (§4) 1×10^5 A549 cells placed on the culture dish with the cover glass were treated with 10 μM of MK2206 (AKT inhibitor) and 50 μM of LY294002 (PI3K inhibitor) for 4 hours. The cells were fixed in 4% paraformaldehyde solution for 20 minutes. Then, the cover glass was washed with PBS three times and then treated with 0.5% TritonX-100 solution for 5 minutes. The cover glass was washed again with PBS three times. The cells were treated with 1% BSA for 2 hours, followed by reaction with the primary antibody TSPYL5 (Santa Cruz) diluted in PBS buffer at the ratio of 1:100 for 2 hours. Then, the cells were reacted with the secondary antibody Rabbit (Cell Signaling Technology) diluted at the ratio of 1:1000 for 1 hour. The cells were washed with PBS three times, and then the nucleus was stained with DAPI solution for 5 minutes. The location and the amount of TSPYL5 expression were investigated under fluorescent microscope.
# Western blotting was also performed by the same manner as described in Experimental Example <1-1>. As a result, when AKT or PI3K inhibitor was treated to the cells, the expressions of TSPYL5, phosphorylated AKT, CD44, ALDH1A3, and ALDH1A1 were reduced.
# [8] = test system: TSPYL5 protein; test: Location of TSPYL5 expression in cells after AKT/PI3K inhibitor (fluorescent microscope); settings: A549 cells, 10 μM MK2206 or 50 μM LY294002, 4 hours
# Protocol: as §4
# [9] = test system: TSPYL5 protein; test: TSPYL5 expression after inhibition of AKT phosphorylation (PCR and Western blotting); settings: A549 cells
# Protocol: In addition, 20 μM of MK2206 (Santa Cruze Biotechnology), the AKT (serine/threonine protein kinase) inhibitor, was treated thereto, followed by investigation of the inhibition of AKT phosphorylation and the inhibition of TSPYL5 expression.
# as §3, with “solution. […]” for “solution.”
# [10] = H460 cells transfected with pcDNA3.1/TSPYL5, 10 μM MK2206, 1 hour
molecule,measurement,setting,value
SERSAADTVFVGTAG (TS120T) [15 mer peptide containing the 120th residue threonine of TSPYL5],cell proliferation,[1],significantly inhibited
same,cell proliferation,[1]; listed as SEQ. ID. NO: 43,reduced
same,sphere formation,[2],suppressed
same,sphere formation,[2]; listed as SEQ. ID. NO: 43,inhibited
same,metastasis (migration),[3],reduced
same,invasion,[4],reduced
ginkgolic acid,TSPYL5 protein expression in the nucleus,[5],not expressed in the nucleus
CC(C)C[C@@H](C=O)NC(=O)[C@H](CC(C)C)NC(=O)[C@H](CC(C)C)NC(=O)OCc1ccccc1 [MG132] (Cbz-Leu-Leu-Leu-aldehyde),protein degradation of TSPYL5,"[6]; H460 cells, when the 120th amino acid of TSPYL5 was phosphorylated",suppressed
SERSAADDVFVGTAG (TS120D) [phosphorylation analogue mutant peptide in which the 120th T was substituted with D],cell proliferation,[1],significantly inhibited
same,cell proliferation,[1]; listed as SEQ. ID. NO: 44,reduced
same,sphere formation,[2],suppressed
same,sphere formation,[2]; listed as SEQ. ID. NO: 44,inhibited
same,metastasis (migration),[3],reduced
same,invasion,[4],reduced
NC1(c2ccc(-c3nc4ccn5c(=O)[nH]nc5c4cc3-c3ccccc3)cc2)CCC1 [MK2206],expression of ALDH1A1,[7],reduced
same,expression of ALDH1A3,[7],reduced
same,expression of CD44,[7],reduced
same,expression of TSPYL5,[7],reduced
same,expression of phosphorylated AKT,[7],reduced
same,TSPYL5 expression in the nucleus,[8],not expressed in the nucleus
same,AKT phosphorylation,[9]; 20 μM MK2206,suppressed
same,expression of TSPYL5 protein,"[9]; 20 μM MK2206, time course",inhibited in proportion to the suppression time of AKT phosphorylation
same,phosphorylation of TSPYL5,[6]; [10],inhibited
same,ubiquitination of TSPYL5,[6]; [10],increased
SERSSADAVFVGTAG (SERSAADAVFVGTAG; TS120A) [mutant peptide in which the 120th T was substituted with A],cell proliferation,[1],not changed
same,sphere formation,[2],not much changed
same,metastasis (migration),[3],did not make any big difference with the control
same,invasion,[4],did not make any big difference with the control
